Test results published in patent US20230056935A1, “Compound, Antimicrobial Deodorant Composition Comprising Same, and Method for Producing Same” (LG Chem, Ltd., priority 2020, published 2023).

How the values were obtained:
E. coli (ATCC 25922) = assay: Antibacterial property evaluation, bacterial growth inhibition (absorbance at 600 nm); format: cell-based; conditions: Escherichia coli, 16 hours at 35° C.; for Absorbance: 600 nm
Protocol: (§1) After introducing 1 mg to 200 mg of the compound to a nutrient broth culture medium (25 ml) inoculated with bacteria 3000±300 CFU/ml, the result is incubated for 16 hours at 35° C. in a shaking incubator to prepare a test culture medium. A control culture medium is prepared in the same manner except that the compound is not introduced in the test culture medium. For the test culture medium and the control culture medium, absorbance at a wavelength of 600 nm is measured using a UV-Vis spectrophotometer, and using the measured absorbance value, a bacterial growth inhibition rate (%) is calculated according to the following Mathematical Formula 1.
(§2) To a nutrient broth culture medium (25 ml) inoculated with Proteus mirabilis (ATCC 29906) or E. coli (ATCC 25922) 3000±300 CFU/ml, Compound 1 prepared in Preparation Example 1 was introduced in a content as described in the following Table 1, and the result was incubated for 16 hours at 35° C. in a shaking incubator to prepare a test culture medium. As a control, a control culture medium was prepared in the same manner except that the compound was not introduced in the test culture medium. For the test culture medium and the control culture medium, absorbance at a wavelength of 600 nm was measured using a UV-Vis spectrophotometer. Using the measurement results, a bacterial growth inhibition rate (%) was calculated according to the following Mathematical Formula 1.
(§3) (As: absorbance of test culture medium, A0: absorbance of control culture medium)

[1] = test system: Proteus mirabilis (ATCC 29906); assay: as above; format: cell-based; conditions: 16 hours at 35° C.; for Absorbance: 600 nm
Protocol: as §1, §2, §3

[2] = Deodorizing property evaluation (SPME, GC/MS peak area); conditions: total 80 mg
Protocol: To a test solution including the compound in 1 phr to 20 phr with respect to a total weight of 80 mg of a super absorbent polymer and the compound, 20 mL of a malodorous solution is introduced, isovaleraldehyde is adsorbed using a solid-phase microextraction method, and a GC/MS peak area of the adsorbed isovaleraldehyde is analyzed through a GC/MS analysis. For a control solution prepared in the same manner except that the compound is not introduced in the test solution, a GC/MS peak area of isovaleraldehyde is analyzed in the same manner, and, using the GC/MS peak area values of the test solution and the control solution, a deodorization rate is calculated according to the following Mathematical Formula 2.
Compound 1 prepared in Preparation Example 1 was introduced to a vial in a content as described in the following Table 2, and after introducing a super absorbent polymer (LG Chem., GS-301N) thereto so that a total content of the super absorbent polymer and Compound 1 becomes 80 mg, a malodorous solution (20 mL) was introduced thereto to prepare a test solution. As the malodorous solution, a solution in which diacetyl (242 ug/mL), isovaleraldehyde (49 ug/mL), dimethyl disulfide (30 ug/mL), dimethyl trisulfide (26 ug/mL) and p-cresol (2508 ug/mL) are mixed was 1/1000 diluted using an aqueous sodium chloride solution (0.9% by weight) and used. Volatile substances generated in the test solution was adsorbed using a solid-phase microextraction method (SPME), and through a GC/MS analysis, GC/MS peak areas of the adsorbed malodorous substances (diacetyl, isovaleraldehyde, dimethyl disulfide, dimethyl trisulfide and p-cresol) were each analyzed. For a control solution prepared in the same manner except that Compound 1 was not included, peak areas of the malodorous substances were analyzed in the same manner, and deodorization rates thereof were each calculated according to the following Mathematical Formula 2.
(Cs: GC/MS peak areas of malodorous substances test solution, C0: GC/MS peak areas of malodorous substances of control solution)

[3] = content 20 mg in 25 ml nutrient broth
[4] = content 50 mg in 25 ml nutrient broth
[5] = content 100 mg in 25 ml nutrient broth
[6] = 1 phr of Compound 1 with super absorbent polymer
[7] = 2 phr of Compound 1 with super absorbent polymer
[8] = 5 phr of Compound 1 with super absorbent polymer
[9] = 8 phr of Compound 1 with super absorbent polymer
[10] = 10 phr of Compound 1 with super absorbent polymer

SMILES: C=CC(=O)OCCC1CCCCN1C(=O)OC(C)CC (stereo not shown) [Compound 1]
- Bacterial Growth Inhibition Rate (%) (E. coli (ATCC 25922); [3]): 62.9%
- Absorbance (E. coli (ATCC 25922); [3]): 0.063
- Bacterial Growth Inhibition Rate (%) (E. coli (ATCC 25922); [4]): 92.4%
- Absorbance (E. coli (ATCC 25922); [4]): 0.013
- Bacterial Growth Inhibition Rate (%) (E. coli (ATCC 25922); [5]): 88.8%
- Absorbance (E. coli (ATCC 25922); [5]): 0.019
- Bacterial Growth Inhibition Rate (%) [1, 3]: 55.6%
- Absorbance [1, 3]: 0.059
- Bacterial Growth Inhibition Rate (%) [1, 4]: 91.7%
- Absorbance [1, 4]: 0.011
- Bacterial Growth Inhibition Rate (%) [1, 5]: 89.5%
- Absorbance [1, 5]: 0.014
- Deodorization rate (%) for Diacetyl [2, 6]: 79%
- Deodorization rate (%) for Dimethyl Disulfide [2, 6]: 65%
- Deodorization rate (%) for Dimethyl Trisulfide [2, 6]: 16%
- Deodorization rate (%) for Isovaleraldehyde [2, 6]: 87%
- Deodorization rate (%) for p-Cresol [2, 6]: 2%
- Deodorization rate (%) for Diacetyl [2, 7]: 86%
- Deodorization rate (%) for Dimethyl Disulfide [2, 7]: 76%
- Deodorization rate (%) for Dimethyl Trisulfide [2, 7]: 27%
- Deodorization rate (%) for Isovaleraldehyde [2, 7]: 92%
- Deodorization rate (%) for p-Cresol [2, 7]: 20%
- Deodorization rate (%) for Diacetyl [2, 8]: 91%
- Deodorization rate (%) for Dimethyl Disulfide [2, 8]: 84%
- Deodorization rate (%) for Dimethyl Trisulfide [2, 8]: 61%
- Deodorization rate (%) for Isovaleraldehyde [2, 8]: 94%
- Deodorization rate (%) for p-Cresol [2, 8]: 37%
- Deodorization rate (%) for Diacetyl [2, 9]: 92%
- Deodorization rate (%) for Dimethyl Disulfide [2, 9]: 88%
- Deodorization rate (%) for Dimethyl Trisulfide [2, 9]: 72%
- Deodorization rate (%) for Isovaleraldehyde [2, 9]: 95%
- Deodorization rate (%) for p-Cresol [2, 9]: 46%
- Deodorization rate (%) for Diacetyl [2, 10]: 93%
- Deodorization rate (%) for Dimethyl Disulfide [2, 10]: 88%
- Deodorization rate (%) for Dimethyl Trisulfide [2, 10]: 76%
- Deodorization rate (%) for Isovaleraldehyde [2, 10]: 95%
- Deodorization rate (%) for p-Cresol [2, 10]: 61%
